In ChEMBL document CHEMBL5303573, “Mapping human microbiome drug metabolism by gut bacteria and their genes” (Nature, 2019):

Assays:
[1] = The drug is tested on Bifidobacterium breve strain: DSM20213 for biotransformation. The drug concentrations were measured before and after a 12-h incubation by liquid-chromatography-coupled mass spectrometry (LC–MS); conditions: 2 µM
[2] = The drug is tested on Bacteroides caccae strain: ATCC43185 for biotransformation. The drug concentrations were measured before and after a 12-h incubation by liquid-chromatography-coupled mass spectrometry (LC–MS); conditions: 2 µM
[3] = The drug is tested on Bacteroides finegoldii strain: DSM17565 for biotransformation. The drug concentrations were measured before and after a 12-h incubation by liquid-chromatography-coupled mass spectrometry (LC–MS); conditions: 2 µM
[4] = The drug is tested on Anaerococcus hydrogenalis strain: DSM7454 for biotransformation. The drug concentrations were measured before and after a 12-h incubation by liquid-chromatography-coupled mass spectrometry (LC–MS); conditions: 2 µM
[5] = The drug is tested on Anaerotruncus colihominis strain: DSM17241 for biotransformation. The drug concentrations were measured before and after a 12-h incubation by liquid-chromatography-coupled mass spectrometry (LC–MS); conditions: 2 µM
[6] = The drug is tested on Blautia luti strain: DSM14534 for biotransformation. The drug concentrations were measured before and after a 12-h incubation by liquid-chromatography-coupled mass spectrometry (LC–MS); type: ADME; design: dose 2 uM, timepoint 0 vs 12 hours; conditions: 2 µM
[7] = The drug is tested on Clostridium scindens strain: ATCC35704 for biotransformation. The drug concentrations were measured before and after a 12-h incubation by liquid-chromatography-coupled mass spectrometry (LC–MS); conditions: 2 µM
[8] = The drug is tested on Coprococcus comes strain: ATCC27758 for biotransformation. The drug concentrations were measured before and after a 12-h incubation by liquid-chromatography-coupled mass spectrometry (LC–MS); type: ADME; design: dose 2 uM, timepoint 0 vs 12 hours; conditions: 2 µM
[9] = The drug is tested on Enterococcus faecalis strain: V583 for biotransformation. The drug concentrations were measured before and after a 12-h incubation by liquid-chromatography-coupled mass spectrometry (LC–MS); conditions: 2 µM
[10] = The drug is tested on Eubacterium hallii strain: DSM3353 for biotransformation. The drug concentrations were measured before and after a 12-h incubation by liquid-chromatography-coupled mass spectrometry (LC–MS); conditions: anaerobutyricum hallii, 2 µM
[11] = The drug is tested on Ruminococcus lactaris strain: ATCC29176 for biotransformation. The drug concentrations were measured before and after a 12-h incubation by liquid-chromatography-coupled mass spectrometry (LC–MS); conditions: 2 µM
[12] = The drug is tested on Edwardsiella tarda strain: ATCC23685 for biotransformation. The drug concentrations were measured before and after a 12-h incubation by liquid-chromatography-coupled mass spectrometry (LC–MS); conditions: 2 µM
[13] = bifidobacterium adolescentis, 12 h, 2 µM
Description: The drug is tested on Bifidobacterium adolescentis strain: ATCC 15703 for biotransformation. The drug concentrations were measured before and after a 12-h incubation by liquid-chromatography-coupled mass spectrometry (LC–MS)

[14] = bacteroides fragilis, 12 h, 2 µM
Description: The drug is tested on Bacteroides fragilis strain: NCTC 9343 for biotransformation. The drug concentrations were measured before and after a 12-h incubation by liquid-chromatography-coupled mass spectrometry (LC–MS)

[15] = bacteroides thetaiotaomicron, 12 h, 2 µM
Description: The drug is tested on Bacteroides thetaiotaomicron strain: 7330 for biotransformation. The drug concentrations were measured before and after a 12-h incubation by liquid-chromatography-coupled mass spectrometry (LC–MS)

[16] = parabacteroides distasonis, 12 h, 2 µM
Description: The drug is tested on Parabacteroides distasonis strain: ATCC8503 for biotransformation. The drug concentrations were measured before and after a 12-h incubation by liquid-chromatography-coupled mass spectrometry (LC–MS)

[17] = segatella copri, 12 h, 2 µM
Description: The drug is tested on Prevotella copri strain: DSM18205 for biotransformation. The drug concentrations were measured before and after a 12-h incubation by liquid-chromatography-coupled mass spectrometry (LC–MS)

[18] = limosilactobacillus reuteri cf48-3a, 12 h, 2 µM
Description: The drug is tested on Lactobacillus reuteri CF48-3A strain: BEI HM-102 for biotransformation. The drug concentrations were measured before and after a 12-h incubation by liquid-chromatography-coupled mass spectrometry (LC–MS)

[19] = roseburia intestinalis, 12 h, 2 µM
Description: The drug is tested on Roseburia intestinalis strain: L1-82 for biotransformation. The drug concentrations were measured before and after a 12-h incubation by liquid-chromatography-coupled mass spectrometry (LC–MS)

With `CCCCCNC(=N)N/N=C/c1c[nH]c2ccc(OC)cc12.O=C(O)/C=C\C(=O)O` [TEGASEROD MALEATE] the “Bacterial Biotransformation” value [1] was “Compound NOT metabolized”, the “Bacterial Biotransformation” value [2] was “Compound NOT metabolized” and the “Bacterial Biotransformation” value [3] was “Compound NOT metabolized”. The “Bacterial Biotransformation” value [4] was “Compound NOT metabolized”, the “Bacterial Biotransformation” value [5] was “Compound NOT metabolized” and the “Bacterial Biotransformation” value [6] was “Compound NOT metabolized”. The “Bacterial Biotransformation” value [7] was “Compound NOT metabolized”, the “Bacterial Biotransformation” value [8] was “Compound NOT metabolized” and the “Bacterial Biotransformation” value [9] was “Compound NOT metabolized”. The “Bacterial Biotransformation” value [10] was “Compound NOT metabolized”, the “Bacterial Biotransformation” value [11] was “Compound NOT metabolized” and the “Bacterial Biotransformation” value [12] was “Compound NOT metabolized”. The “Bacterial Biotransformation” value [13] was “Compound NOT metabolized”, the “Bacterial Biotransformation” value [14] was “Compound NOT metabolized” and the “Bacterial Biotransformation” value [15] was “Compound NOT metabolized”. The “Bacterial Biotransformation” value [16] was “Compound NOT metabolized”, the “Bacterial Biotransformation” value [17] was “Compound NOT metabolized” and the “Bacterial Biotransformation” value [18] was “Compound NOT metabolized”. For the same compound, the “Bacterial Biotransformation” value [19] was “Compound NOT metabolized”.
In the case of `COc1cc2nc(N3CCN(C(=O)C4CCCO4)CC3)nc(N)c2cc1OC` (stereo unspecified) [TERAZOSIN], the “Bacterial Biotransformation” value [1] was “Compound NOT metabolized”, the “Bacterial Biotransformation” value [2] was “Compound NOT metabolized” and the “Bacterial Biotransformation” value [3] was “Compound NOT metabolized”. The “Bacterial Biotransformation” value [4] was “Compound NOT metabolized”, the “Bacterial Biotransformation” value [5] was “Compound NOT metabolized” and the “Bacterial Biotransformation” value [6] was “Compound NOT metabolized”. The “Bacterial Biotransformation” value [8] was “Compound NOT metabolized”, the “Bacterial Biotransformation” value [9] was “Compound NOT metabolized” and the “Bacterial Biotransformation” value [10] was “Compound NOT metabolized”. The “Bacterial Biotransformation” value [12] was “Compound NOT metabolized”, the “Bacterial Biotransformation” value [13] was “Compound NOT metabolized” and the “Bacterial Biotransformation” value [14] was “Compound NOT metabolized”. The “Bacterial Biotransformation” value [15] was “Compound NOT metabolized”, the “Bacterial Biotransformation” value [16] was “Compound NOT metabolized” and the “Bacterial Biotransformation” value [17] was “Compound NOT metabolized”. The “Bacterial Biotransformation” value [18] was “Compound NOT metabolized” and the “Bacterial Biotransformation” value [19] was “Compound NOT metabolized”.
For `CC(=O)CC(c1ccccc1)c1c(O)c2ccccc2oc1=O` (stereo unspecified) [WARFARIN], the “Bacterial Biotransformation” value [1] was “Compound NOT metabolized”, the “Bacterial Biotransformation” value [2] was “Compound NOT metabolized” and the “Bacterial Biotransformation” value [3] was “Compound NOT metabolized”. For the same compound, the “Bacterial Biotransformation” value [4] was “Compound NOT metabolized”, the “Bacterial Biotransformation” value [5] was “Compound NOT metabolized” and the “Bacterial Biotransformation” value [6] was “Compound NOT metabolized”. The “Bacterial Biotransformation” value [7] was “Compound NOT metabolized”, the “Bacterial Biotransformation” value [8] was “Compound NOT metabolized” and the “Bacterial Biotransformation” value [9] was “Compound NOT metabolized”. For the same compound, the “Bacterial Biotransformation” value [10] was “Compound NOT metabolized”, the “Bacterial Biotransformation” value [11] was “Compound NOT metabolized” and the “Bacterial Biotransformation” value [12] was “Compound NOT metabolized”. For the same compound, the “Bacterial Biotransformation” value [13] was “Compound NOT metabolized”, the “Bacterial Biotransformation” value [14] was “Compound NOT metabolized” and the “Bacterial Biotransformation” value [15] was “Compound NOT metabolized”. The “Bacterial Biotransformation” value [16] was “Compound NOT metabolized”, the “Bacterial Biotransformation” value [18] was “Compound NOT metabolized” and the “Bacterial Biotransformation” value [19] was “Compound NOT metabolized”.
In the case of `COc1cc(C(=O)NCc2ccc(OCCN(C)C)cc2)cc(OC)c1OC` [TRIMETHOBENZAMIDE], the “Bacterial Biotransformation” value [1] was “Compound NOT metabolized”, the “Bacterial Biotransformation” value [2] was “Compound NOT metabolized” and the “Bacterial Biotransformation” value [3] was “Compound NOT metabolized”. The “Bacterial Biotransformation” value [4] was “Compound NOT metabolized”, the “Bacterial Biotransformation” value [5] was “Compound NOT metabolized” and the “Bacterial Biotransformation” value [6] was “Compound NOT metabolized”. For the same compound, the “Bacterial Biotransformation” value [8] was “Compound NOT metabolized”, the “Bacterial Biotransformation” value [9] was “Compound NOT metabolized” and the “Bacterial Biotransformation” value [10] was “Compound NOT metabolized”. For the same compound, the “Bacterial Biotransformation” value [11] was “Compound NOT metabolized”, the “Bacterial Biotransformation” value [12] was “Compound NOT metabolized” and the “Bacterial Biotransformation” value [13] was “Compound NOT metabolized”. For the same compound, the “Bacterial Biotransformation” value [14] was “Compound NOT metabolized”, the “Bacterial Biotransformation” value [15] was “Compound NOT metabolized” and the “Bacterial Biotransformation” value [16] was “Compound NOT metabolized”. The “Bacterial Biotransformation” value [17] was “Compound NOT metabolized”, the “Bacterial Biotransformation” value [18] was “Compound NOT metabolized” and the “Bacterial Biotransformation” value [19] was “Compound NOT metabolized”.
In the case of `CN(CCOc1ccc(CC2SC(=O)NC2=O)cc1)c1ccccn1.O=C(O)/C=C\C(=O)O` (stereo unspecified) [ROSIGLITAZONE MALEATE], the “Bacterial Biotransformation” value [1] was “Compound NOT metabolized”, the “Bacterial Biotransformation” value [2] was “Compound NOT metabolized” and the “Bacterial Biotransformation” value [3] was “Compound NOT metabolized”. For the same compound, the “Bacterial Biotransformation” value [4] was “Compound NOT metabolized”, the “Bacterial Biotransformation” value [5] was “Compound NOT metabolized” and the “Bacterial Biotransformation” value [6] was “Compound NOT metabolized”. The “Bacterial Biotransformation” value [7] was “Compound NOT metabolized”, the “Bacterial Biotransformation” value [8] was “Compound NOT metabolized” and the “Bacterial Biotransformation” value [9] was “Compound NOT metabolized”. The “Bacterial Biotransformation” value [10] was “Compound NOT metabolized”, the “Bacterial Biotransformation” value [11] was “Compound NOT metabolized” and the “Bacterial Biotransformation” value [12] was “Compound NOT metabolized”. For the same compound, the “Bacterial Biotransformation” value [13] was “Compound NOT metabolized”, the “Bacterial Biotransformation” value [14] was “Compound NOT metabolized” and the “Bacterial Biotransformation” value [15] was “Compound NOT metabolized”. For the same compound, the “Bacterial Biotransformation” value [16] was “Compound NOT metabolized”, the “Bacterial Biotransformation” value [17] was “Compound NOT metabolized” and the “Bacterial Biotransformation” value [18] was “Compound NOT metabolized”. For the same compound, the “Bacterial Biotransformation” value [19] was “Compound NOT metabolized”.
In the case of `CCCc1nn(C)c2c(=O)[nH]c(-c3cc(S(=O)(=O)N4CCN(C)CC4)ccc3OCC)nc12.O=C(O)CC(O)(CC(=O)O)C(=O)O` [SILDENAFIL CITRATE], the “Bacterial Biotransformation” value [1] was “Compound NOT metabolized”, the “Bacterial Biotransformation” value [2] was “Compound NOT metabolized” and the “Bacterial Biotransformation” value [3] was “Compound NOT metabolized”. For the same compound, the “Bacterial Biotransformation” value [4] was “Compound metabolized”, the “Bacterial Biotransformation” value [5] was “Compound NOT metabolized” and the “Bacterial Biotransformation” value [6] was “Compound NOT metabolized”. The “Bacterial Biotransformation” value [7] was “Compound NOT metabolized”, the “Bacterial Biotransformation” value [9] was “Compound NOT metabolized” and the “Bacterial Biotransformation” value [10] was “Compound NOT metabolized”. For the same compound, the “Bacterial Biotransformation” value [11] was “Compound NOT metabolized”, the “Bacterial Biotransformation” value [12] was “Compound NOT metabolized” and the “Bacterial Biotransformation” value [13] was “Compound NOT metabolized”. The “Bacterial Biotransformation” value [14] was “Compound metabolized”, the “Bacterial Biotransformation” value [15] was “Compound NOT metabolized” and the “Bacterial Biotransformation” value [16] was “Compound NOT metabolized”. The “Bacterial Biotransformation” value [17] was “Compound NOT metabolized”, the “Bacterial Biotransformation” value [18] was “Compound metabolized” and the “Bacterial Biotransformation” value [19] was “Compound NOT metabolized”.
With `CNNCc1ccc(C(=O)NC(C)C)cc1` [PROCARBAZINE] the “Bacterial Biotransformation” value [1] was “Compound NOT metabolized”, the “Bacterial Biotransformation” value [2] was “Compound NOT metabolized” and the “Bacterial Biotransformation” value [3] was “Compound NOT metabolized”. For the same compound, the “Bacterial Biotransformation” value [4] was “Compound NOT metabolized”, the “Bacterial Biotransformation” value [5] was “Compound NOT metabolized” and the “Bacterial Biotransformation” value [6] was “Compound NOT metabolized”. For the same compound, the “Bacterial Biotransformation” value [7] was “Compound NOT metabolized”, the “Bacterial Biotransformation” value [8] was “Compound NOT metabolized” and the “Bacterial Biotransformation” value [9] was “Compound NOT metabolized”. The “Bacterial Biotransformation” value [10] was “Compound NOT metabolized”, the “Bacterial Biotransformation” value [11] was “Compound NOT metabolized” and the “Bacterial Biotransformation” value [12] was “Compound NOT metabolized”. For the same compound, the “Bacterial Biotransformation” value [13] was “Compound NOT metabolized”, the “Bacterial Biotransformation” value [14] was “Compound NOT metabolized” and the “Bacterial Biotransformation” value [15] was “Compound NOT metabolized”. For the same compound, the “Bacterial Biotransformation” value [16] was “Compound NOT metabolized”, the “Bacterial Biotransformation” value [17] was “Compound NOT metabolized” and the “Bacterial Biotransformation” value [18] was “Compound NOT metabolized”. The “Bacterial Biotransformation” value [19] was “Compound NOT metabolized”.
With `N#Cc1ccc2[nH]cc(CCCCN3CCN(c4ccc5oc(C(N)=O)cc5c4)CC3)c2c1` [VILAZODONE] the “Bacterial Biotransformation” value [1] was “Compound NOT metabolized”, the “Bacterial Biotransformation” value [2] was “Compound metabolized” and the “Bacterial Biotransformation” value [4] was “Compound NOT metabolized”. The “Bacterial Biotransformation” value [5] was “Compound NOT metabolized”, the “Bacterial Biotransformation” value [6] was “Compound NOT metabolized” and the “Bacterial Biotransformation” value [7] was “Compound NOT metabolized”. For the same compound, the “Bacterial Biotransformation” value [8] was “Compound NOT metabolized”, the “Bacterial Biotransformation” value [9] was “Compound metabolized” and the “Bacterial Biotransformation” value [10] was “Compound NOT metabolized”. For the same compound, the “Bacterial Biotransformation” value [11] was “Compound NOT metabolized”, the “Bacterial Biotransformation” value [12] was “Compound NOT metabolized” and the “Bacterial Biotransformation” value [13] was “Compound NOT metabolized”. The “Bacterial Biotransformation” value [14] was “Compound metabolized”, the “Bacterial Biotransformation” value [15] was “Compound metabolized” and the “Bacterial Biotransformation” value [16] was “Compound metabolized”. For the same compound, the “Bacterial Biotransformation” value [17] was “Compound metabolized”, the “Bacterial Biotransformation” value [18] was “Compound NOT metabolized” and the “Bacterial Biotransformation” value [19] was “Compound NOT metabolized”.
